Assays:
Assay type in all cases: in vivo
[1] = tested on: mandarin orange tree (Satsuma mandarin); assay: preventing peel puffing and improving fruit quality, leaf spray on mandarin orange tree; details: for Fruit skin color: color chart 0 (poorly colored) to 12 (fully colored); for Degree of peel puffing: peel puffing index, 20 fruits, sprayed three times; for Phytotoxicity: scale of 1 to 5; for Sugar content: sugar refractometer; for Acidity: titratable citric acid content
Procedure: (§1) The effects of a quality improver in preventing peel puffing and improving fruit quality were evaluated using a mandarin orange tree (Satsuma mandarin). That is, the quality improver of Example 1 was sprayed on the mandarin orange tree at the polyvalent metal concentrations shown in Table 2 over three times from early September (one-month interval). Each treatment was conducted on each branch by spraying with a backpack sprayer.
The evaluation was carried out on 20 randomly selected fruits. The degree of peel puffing was evaluated by examining cross sections of the fruits based on a 4-point scale (none=0, mild=1, moderate=2, severe=3), and expressed by the following equation: peel puffing index={(1×the number of fruits with mild peel puffing)+(2×the number of fruits with moderate peel puffing)+(3×the number of fruits with severe peel puffing)}×100/(3×the number of fruits examined). The fruit skin color was determined using a color chart based on a scale of 0 (poorly colored) to 12 (fully colored). The sugar content was determined using a sugar refractometer. The acidity was expressed as titratable citric acid content. The dirt on a fruit surface was evaluated by a ratio of the surface area soiled whitish to the total surface area of the fruit on a scale of 1 to 5 (not soiled=1, slightly soiled=2, a little soiled=3, moderately soiled=4, much soiled=5). The phytotoxicity was evaluated on a scale of 1 to 5 (normal=1, slightly damaged=2, a little damaged=3, moderately damaged=4, much damaged=5).
The examinations were carried out in the same manner as in Application Example 1 except that the quality improvers of Examples 2 to 21 and Comparative Examples 1 to 4 were used instead of the quality improver of Example 1.

grape tree (Pione) = assay: reducing fruit-cracking and improving fruit quality, spray on grape tree
Procedure: as §1, with “reducing fruit-cracking” for “preventing peel puffing”, “grape” for “mandarin orange”, “(Pione).” for “(Satsuma mandarin).”, “8” for “2”, “four” for “three”, “July (two-week” for “September (one-month”
The evaluation was carried out on 20 randomly selected clusters. The number of fruit-cracking was expressed as the number of grains with cracking in a cluster examined. The degree of fruit coloring was expressed using a color chart based on a scale of 0 (poorly colored) to 12 (fully colored). The sugar content was determined using a sugar refractometer. The acidity was expressed as titratable tartaric acid content. The dirt on a fruit surface was evaluated by a ratio of the surface area soiled whitish to the total surface area of the fruit on a scale of 1 to 5 (not soiled=1, slightly soiled=2, a little soiled=3, moderately soiled=4, much soiled=5). The phytotoxicity was evaluated on a scale of 1 to 5 (normal=1, slightly damaged=2, a little damaged=3, moderately damaged=4, much damaged=5).
The examinations were carried out in the same manner as in Application Example 64 except that the quality improvers of Examples 2 to 4, 6 to 7, 12, 14, 17 to 18, and Comparative Examples 1 to 4 were used instead of the quality improver of Example 1.

apple tree (Orin) = assay: reducing bitter pit and improving fruit quality, spray on apple tree; details: for Incidence of bitter pit: 50 fruits, sprayed four times; for Ground color: fruit skin, 5-point scale (best=5, worst=1); for Phytotoxicity: scale of 1 to 5; for Sugar content: sugar refractometer; for Acidity: titratable malic acid content
Procedure: The effects of a quality improver in reducing bitter pit and improving fruit quality were evaluated using an apple tree (Orin). That is, the quality improver of Example 1 was sprayed on the apple tree at the polyvalent metal concentrations shown in Table 4 over four times from early June (two-week interval). Each treatment was conducted on each branch by spraying with a backpack sprayer.
The evaluation was carried out on 50 randomly selected fruits. The incidence of bitter pit was expressed as a ratio of the number of fruits with bitter pit to the total number of fruits examined. The ground color of fruit skin was determined on a 5-point scale (best=5, worst=1). The sugar content was determined using a sugar refractometer. The acidity was expressed as titratable malic acid content. The phytotoxicity was evaluated on a scale of 1 to 5 (normal=1, slightly damaged=2, a little damaged=3, moderately damaged=4, much damaged=5).
The examinations were carried out in the same manner as in Application Example 22 except that the quality improvers of Examples 2 to 21 and Comparative Examples 1 to 4 were used instead of the quality improver of Example 1.

apple tree (Tsugaru) = assay: preventing sunburn, spray on apple tree
Procedure: The effects of a quality improver in preventing sunburn were evaluated using an apple tree (Tsugaru).
That is, the quality improver of Example 1 was sprayed on the apple tree at the polyvalent metal concentrations shown in Table 12 over three times from early July (two-week interval). Each treatment was conducted on each branch by spraying with a backpack sprayer.
The evaluation was carried out on 50 randomly selected fruits. The incidence of sunburn was expressed as a ratio of the number of fruits with sunburn to the total number of fruits examined. The level of sunburn was expressed on a 4-point scale (none=0, mild=1, moderate=2, severe=3) based on a ratio of the sunburn area to the total surface area of the fruit. The fruit with a sunburn level of 2 or 3 was considered as a seriously damaged fruit. The dirt on a fruit surface was evaluated by a ratio of the surface area soiled whitish to the total surface area of the fruit on a scale of 1 to 5 (not soiled=1, slightly soiled=2, a little soiled=3, moderately soiled=4, much soiled=5). The phytotoxicity was evaluated on a scale of 1 to 5 (normal=1, slightly damaged=2, a little damaged=3, moderately damaged=4, much damaged=5).
The examinations were carried out in the same manner as in Application Example 84 except that the quality improvers of Examples 2 to 4, 6 to 7, 12, 14, 17 to 18, and Comparative Examples 1 to 4 were used instead of the quality improver of Example 1.

SMILES: [Ca+2].[Cl-].[Cl-] [calcium chloride]
- Fruit skin color ([1]; polyvalent metal 0.030 wt. %): 9.5
- Fruit skin color ([1]; polyvalent metal 0.075 wt. %): 9.9
- Degree of peel puffing ([1]; polyvalent metal 0.030 wt. %): 47.0
- Degree of peel puffing ([1]; polyvalent metal 0.075 wt. %): 42.0
- Phytotoxicity ([1]; polyvalent metal 0.030 wt. %): 4
- Phytotoxicity ([1]; polyvalent metal 0.075 wt. %): 4
- Sugar content ([1]; polyvalent metal 0.030 wt. %): 10.0
- Sugar content ([1]; polyvalent metal 0.075 wt. %): 10.1
- Acidity ([1]; polyvalent metal 0.030 wt. %): 1.00
- Acidity ([1]; polyvalent metal 0.075 wt. %): 0.99
- Acidity (grape tree (Pione); polyvalent metal 0.030 wt. %): 0.63
- Degree of fruit coloring (grape tree (Pione); polyvalent metal 0.030 wt. %): 9.2
- Number of fruit-cracking (grape tree (Pione); polyvalent metal 0.030 wt. %): 4.4
- Phytotoxicity (grape tree (Pione); polyvalent metal 0.030 wt. %): 4
- Sugar content (grape tree (Pione); polyvalent metal 0.030 wt. %): 18.4
- Acidity (grape tree (Pione); polyvalent metal 0.075 wt. %): 0.66
- Degree of fruit coloring (grape tree (Pione); polyvalent metal 0.075 wt. %): 9.0
- Number of fruit-cracking (grape tree (Pione); polyvalent metal 0.075 wt. %): 4.5
- Phytotoxicity (grape tree (Pione); polyvalent metal 0.075 wt. %): 4
- Sugar content (grape tree (Pione); polyvalent metal 0.075 wt. %): 18.6
- Incidence of bitter pit (apple tree (Orin); polyvalent metal 0.030 wt. %): 30.0%
- Incidence of bitter pit (apple tree (Orin); polyvalent metal 0.075 wt. %): 25.0%
- Ground color (apple tree (Orin); polyvalent metal 0.030 wt. %): 3.7
- Ground color (apple tree (Orin); polyvalent metal 0.075 wt. %): 3.9
- Phytotoxicity (apple tree (Orin); polyvalent metal 0.030 wt. %): 4
- Phytotoxicity (apple tree (Orin); polyvalent metal 0.075 wt. %): 4
- Sugar content (apple tree (Orin); polyvalent metal 0.030 wt. %): 14.1
- Sugar content (apple tree (Orin); polyvalent metal 0.075 wt. %): 14.2
- Acidity (apple tree (Orin); polyvalent metal 0.030 wt. %): 0.37
- Acidity (apple tree (Orin); polyvalent metal 0.075 wt. %): 0.35
- Incidence of sunburn (apple tree (Tsugaru); polyvalent metal 0.030 wt. %): 10.0%
- Phytotoxicity (apple tree (Tsugaru); polyvalent metal 0.030 wt. %): 4
- Seriously damaged fruit (apple tree (Tsugaru); polyvalent metal 0.030 wt. %): 8.0%
- Incidence of sunburn (apple tree (Tsugaru); polyvalent metal 0.075 wt. %): 12.0%
- Phytotoxicity (apple tree (Tsugaru); polyvalent metal 0.075 wt. %): 4
- Seriously damaged fruit (apple tree (Tsugaru); polyvalent metal 0.075 wt. %): 8.0%

SMILES: O=C[O-].O=C[O-].[Ca+2] [calcium formate]
- Fruit skin color ([1]; polyvalent metal 0.030 wt. %): 10.0
- Fruit skin color ([1]; polyvalent metal 0.075 wt. %): 10.4
- Degree of peel puffing ([1]; polyvalent metal 0.030 wt. %): 47.5
- Degree of peel puffing ([1]; polyvalent metal 0.075 wt. %): 42.5
- Phytotoxicity ([1]; polyvalent metal 0.030 wt. %): 3
- Phytotoxicity ([1]; polyvalent metal 0.075 wt. %): 3
- Sugar content ([1]; polyvalent metal 0.030 wt. %): 10.5
- Sugar content ([1]; polyvalent metal 0.075 wt. %): 11.1
- Acidity ([1]; polyvalent metal 0.030 wt. %): 0.93
- Acidity ([1]; polyvalent metal 0.075 wt. %): 0.95
- Acidity (grape tree (Pione); polyvalent metal 0.030 wt. %): 0.54
- Degree of fruit coloring (grape tree (Pione); polyvalent metal 0.030 wt. %): 9.7
- Number of fruit-cracking (grape tree (Pione); polyvalent metal 0.030 wt. %): 3.9
- Phytotoxicity (grape tree (Pione); polyvalent metal 0.030 wt. %): 3
- Sugar content (grape tree (Pione); polyvalent metal 0.030 wt. %): 18.9
- Acidity (grape tree (Pione); polyvalent metal 0.075 wt. %): 0.53
- Degree of fruit coloring (grape tree (Pione); polyvalent metal 0.075 wt. %): 9.7
- Number of fruit-cracking (grape tree (Pione); polyvalent metal 0.075 wt. %): 3.6
- Phytotoxicity (grape tree (Pione); polyvalent metal 0.075 wt. %): 3
- Sugar content (grape tree (Pione); polyvalent metal 0.075 wt. %): 19.3
- Incidence of bitter pit (apple tree (Orin); polyvalent metal 0.030 wt. %): 26.0%
- Incidence of bitter pit (apple tree (Orin); polyvalent metal 0.075 wt. %): 24.0%
- Ground color (apple tree (Orin); polyvalent metal 0.030 wt. %): 3.8
- Ground color (apple tree (Orin); polyvalent metal 0.075 wt. %): 3.8
- Phytotoxicity (apple tree (Orin); polyvalent metal 0.030 wt. %): 3
- Phytotoxicity (apple tree (Orin); polyvalent metal 0.075 wt. %): 3
- Sugar content (apple tree (Orin); polyvalent metal 0.030 wt. %): 14.5
- Sugar content (apple tree (Orin); polyvalent metal 0.075 wt. %): 14.9
- Acidity (apple tree (Orin); polyvalent metal 0.030 wt. %): 0.38
- Acidity (apple tree (Orin); polyvalent metal 0.075 wt. %): 0.30
- Incidence of sunburn (apple tree (Tsugaru); polyvalent metal 0.030 wt. %): 10.0%
- Phytotoxicity (apple tree (Tsugaru); polyvalent metal 0.030 wt. %): 3
- Seriously damaged fruit (apple tree (Tsugaru); polyvalent metal 0.030 wt. %): 6.0%
- Incidence of sunburn (apple tree (Tsugaru); polyvalent metal 0.075 wt. %): 10.0%
- Phytotoxicity (apple tree (Tsugaru); polyvalent metal 0.075 wt. %): 3
- Seriously damaged fruit (apple tree (Tsugaru); polyvalent metal 0.075 wt. %): 6.0%

Reference: patent US8404619B2, “Particulate plant treatment composition” (Maruo Calcium Company Limited, priority 2005, dated 2013)
